In patent US12319672B2, “Alpha-D-galactopyranoside derivatives” (Idorsia Pharmaceuticals Ltd, priority 2019, dated 2025):

What was measured:
human Gal-3 (hGal-3) = human Gal-3 (hGal-3) (Homo sapiens (Human), UniProt P17931); experiment: Competitive binding assay: binding of biotinylated hGal-3 to microplate-adsorbed asialofetuin (ASF); conditions: Activity on hGal-3; mean values of several measurements
Method in brief: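 Biotin-hGal-3/hGal-1 300-1000 ng/mL + cpd (DMSO dilutions) on ASF-coated plate, 3 h 4° C; wash; SA-HRP 80 ng/mL 1 h 4° C; wash; ABTS. IC50 = mean of several runs. hGal-1 preferably Cys→Ser (all six) mutant.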

human Gal-1 (hGal-1) = experiment: Competitive binding assay: binding of biotinylated hGal-1 to microplate-adsorbed asialofetuin (ASF); conditions: Activities on hGal-1; mean values of several measurements
Method in brief: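 Compounds diluted in DMSO competed with biotinylated hGal-3 or hGal-1 (300-1000 ng/mL) for binding to plate-adsorbed asialofetuin for 3 h at 4° C. Bound galectin was detected with streptavidin-peroxidase (80 ng/mL, 1 h, 4° C) and ABTS substrate; IC50 reported as mean of several measurements.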

Chain of human Gal-3 (hGal-3) (P17931 whole entry): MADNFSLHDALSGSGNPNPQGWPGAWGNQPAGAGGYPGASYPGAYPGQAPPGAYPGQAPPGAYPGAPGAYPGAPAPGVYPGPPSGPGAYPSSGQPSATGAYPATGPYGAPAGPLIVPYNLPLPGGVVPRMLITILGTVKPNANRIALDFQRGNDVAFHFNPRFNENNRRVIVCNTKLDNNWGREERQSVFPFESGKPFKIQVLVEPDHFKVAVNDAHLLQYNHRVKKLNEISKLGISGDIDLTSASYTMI
Chain of human Gal-1 (hGal-1) (P09382 2-135 limits assumed): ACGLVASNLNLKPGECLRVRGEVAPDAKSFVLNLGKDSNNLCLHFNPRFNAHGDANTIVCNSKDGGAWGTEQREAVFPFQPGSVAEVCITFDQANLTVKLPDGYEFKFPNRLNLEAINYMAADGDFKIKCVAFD

IC50 (human Gal-3 (hGal-3))	IC50 (human Gal-1 (hGal-1))	Compound
660 nM	41900 nM	CC(C)(C)OC(=O)N1CCC(c2cc(C[C@H]3O[C@H](CO)[C@H](O)[C@H](n4cc(-c5cc(F)c(F)c(F)c5)nn4)[C@H]3O)no2)C1 (stereo partly shown) [Ex 1.55]
1800 nM	22200 nM	OC[C@H]1O[C@H](C[C@H]2CC(C3CCCCC3)=NO2)[C@H](O)[C@@H](n2cc(-c3cc(F)c(F)c(F)c3)nn2)[C@H]1O [Ex 1.06]
280 nM	2090 nM	CO[C@@H]1[C@@H](n2cc(-c3cc(F)c(F)c(F)c3)nn2)[C@@H](O)[C@@H](CO)O[C@@H]1C[C@@H]1CC(C2CCNCC2)=NO1 [Example 3.06, (2R,3R,4S,5R,6R)-2-(hydroxymethyl)-5-methoxy-6-(((S)-3-(piperidin-4-yl)-4,5-dihydroisoxazol-5-yl)methyl)-4-(4-(3,4,5-trifluorophenyl)-1H-1,2,3-triazol-1-yl)tetrahydro-2H-pyran-3-ol]
300 nM	1820 nM	CO[C@@H]1[C@@H](n2cc(-c3ccc(Cl)c(F)c3F)nn2)[C@@H](O)[C@@H](CO)O[C@@H]1CC1CC(C(C)(C)CO)=NO1 (stereo partly shown) [Ex 1.280]
82 nM	2370 nM	CC(C)(C)OC(=O)N1CCC(C2=NOC(C[C@H]3O[C@H](CO)[C@H](O)[C@H](n4cc(-c5ccc(Cl)c(F)c5F)nn4)[C@H]3O)C2)CC1 (stereo partly shown) [Ex 1.102]
140 nM	3570 nM	CO[C@@H]1[C@@H](n2cc(-c3ccc(C)c(F)c3F)nn2)[C@@H](O)[C@@H](CO)O[C@@H]1Cc1cc(C2(CO)CC2)on1 [Ex 1.324]
33 nM	620 nM	CO[C@@H]1[C@@H](n2cc(-c3ccc(Cl)c(F)c3F)nn2)[C@@H](O)[C@@H](CO)O[C@@H]1Cc1cc(C2(C)CC2)no1 [Ex 1.259]
310 nM	2740 nM	CO[C@@H]1[C@@H](n2cc(-c3cc(F)c(F)c(F)c3)nn2)[C@@H](O)[C@@H](CO)O[C@@H]1Cn1cc(C2CCCCC2)nn1 [Example 4.29, (2R,3R,4S,5R,6R)-6-((4-cyclohexyl-1H-1,2,3-triazol-1-yl)methyl)-2-(hydroxymethyl)-5-methoxy-4-(4-(3,4,5-trifluorophenyl)-1H-1,2,3-triazol-1-yl)tetrahydro-2H-pyran-3-ol]
660 nM	6540 nM	CO[C@@H]1[C@@H](n2cc(-c3cc(F)c(F)c(F)c3)nn2)[C@@H](O)[C@@H](CO)O[C@@H]1C[C@H]1CC(C2CCN(C(=O)OC(C)(C)C)CC2)=NO1 [Ex 1.47]
120 nM	650 nM	CO[C@@H]1[C@@H](n2cc(-c3cc(F)c(F)c(F)c3)nn2)[C@@H](O)[C@@H](CO)O[C@@H]1CC1CN(C2CCN(C(C)=O)CC2)C(=O)O1 (mixture of isomers) [Example 5.03, (RS)-3-(1-acetylpiperidin-4-yl)-5-(((2R,3R,4S,5R,6R)-5-hydroxy-6-(hydroxymethyl)-3-methoxy-4-(4-(3,4,5-trifluorophenyl)-1H-1,2,3-triazol-1-yl)tetrahydro-2H-pyran-2-yl)methyl)oxazolidin-2-one]
270 nM	8510 nM	CO[C@@H]1[C@@H](n2cc(-c3cc(F)c(F)c(F)c3)nn2)[C@@H](O)[C@@H](CO)O[C@@H]1Cc1cc(C2CCOCC2)on1 [Ex 1.64]
70 nM	520 nM	CO[C@@H]1[C@@H](n2cc(-c3cc(F)c(F)c(F)c3)nn2)[C@@H](O)[C@@H](CO)O[C@@H]1C[C@@H]1CC(C2CCN(C(C)=O)CC2)=NO1 [Example 3.12, 1-(4-((S)-5-(((2R,3R,4S,5R,6R)-5-hydroxy-6-(hydroxymethyl)-3-methoxy-4-(4-(3,4,5-trifluorophenyl)-1H-1,2,3-triazol-1-yl)tetrahydro-2H-pyran-2-yl)methyl)-4,5-dihydroisoxazol-3-yl)piperidin-1-yl)ethan-1-one]
1570 nM	5280 nM	COc1ccc(N2CC(C[C@H]3O[C@H](CO)[C@H](O)[C@H](n4cc(-c5cc(F)c(F)c(F)c5)nn4)[C@H]3OC)OC2=O)cc1 (mixture of isomers) [Example 5.01, (RS)-5-(((2R,3R,4S,5R,6R)-5-hydroxy-6-(hydroxymethyl)-3-methoxy-4-(4-(3,4,5-trifluorophenyl)-1H-1,2,3-triazol-1-yl)tetrahydro-2H-pyran-2-yl)methyl)-3-(4-methoxyphenyl)oxazolidin-2-one]
670 nM	4970 nM	COc1ccc(C2=NOC(C[C@H]3O[C@H](CO)[C@H](O)[C@H](n4cc(-c5cc(F)c(F)c(F)c5)nn4)[C@H]3O)C2)cc1O (stereo partly shown) [Ex 1.25]
77 nM	960 nM	COc1ccc(-c2cn([C@H]3[C@@H](O)[C@@H](CO)O[C@H](CC4CC(C5CCN(C(=O)OC(C)(C)C)CC5)=NO4)[C@@H]3OC)nn2)c(F)c1F (stereo partly shown) [Ex 1.328]
46 nM	960 nM	1-(4-(3-(((2R,3R,4R,5R,6R)-3,5-dihydroxy-6-(hydroxymethyl)-4-(4-(3,4,5-trifluorophenyl)-1H-1,2,3-triazol-1-yl)tetrahydro-2H-pyran-2-yl)methyl)isoxazol-5-yl)piperidin-1-yl)ethan-1-one [Example 3.17]
170 nM	1560 nM	CO[C@@H]1[C@@H](n2cc(-c3cc(F)c(Cl)c(F)c3)nn2)[C@@H](O)[C@@H](CO)O[C@@H]1CC1CC(C2CCN(C(=O)OC(C)(C)C)CC2)=NO1 (stereo partly shown) [Ex 1.145]
41 nM	470 nM	CO[C@@H]1[C@@H](n2cc(-c3cc(F)c(F)c(F)c3)nn2)[C@@H](O)[C@@H](CO)O[C@@H]1Cc1cc(C2CCN(C(=O)CC(C)C)CC2)on1 [Example 3.48, 1-(4-(3-(((2R,3R,4S,5R,6R)-5-hydroxy-6-(hydroxymethyl)-3-methoxy-4-(4-(3,4,5-trifluorophenyl)-1H-1,2,3-triazol-1-yl)tetrahydro-2H-pyran-2-yl)methyl)isoxazol-5-yl)piperidin-1-yl)-3-methylbutan-1-one]
550 nM	5650 nM	CO[C@@H]1[C@@H](n2cc(-c3cc(F)c(F)c(F)c3)nn2)[C@@H](O)[C@@H](CO)O[C@@H]1CC1CC(C2CCNCC2)=NO1 (mixture of isomers) [Example 3.04, (2R,3R,4S,5R,6R)-2-(hydroxymethyl)-5-methoxy-6-(((RS)-3-(piperidin-4-yl)-4,5-dihydroisoxazol-5-yl)methyl)-4-(4-(3,4,5-trifluorophenyl)-1H-1,2,3-triazol-1-yl)tetrahydro-2H-pyran-3-ol]
140 nM	7160 nM	CO[C@@H]1[C@@H](n2cc(-c3ccc(C)c(F)c3F)nn2)[C@@H](O)[C@@H](CO)O[C@@H]1Cc1cc(C2(O)CC2)on1 [Ex 1.319]
160 nM	3620 nM	CC(C)(C)C(=O)N1CCC(c2cc(C[C@H]3O[C@H](CO)[C@H](O)[C@H](n4cc(-c5cc(F)c(F)c(F)c5)nn4)[C@H]3O)no2)CC1 [Example 3.30, 1-(4-(3-(((2R,3R,4R,5R,6R)-3,5-dihydroxy-6-(hydroxymethyl)-4-(4-(3,4,5-trifluorophenyl)-1H-1,2,3-triazol-1-yl)tetrahydro-2H-pyran-2-yl)methyl)isoxazol-5-yl)piperidin-1-yl)-2,2-dimethylpropan-1-one]
1060 nM	640 nM	COc1ccc(-c2cn([C@H]3[C@@H](O)[C@@H](CO)O[C@H](CC4CC(C5CCN(C(=O)OC(C)(C)C)CC5)=NO4)[C@@H]3O)nn2)cc1 (stereo partly shown) [Ex 1.113]
180 nM	2030 nM	CO[C@@H]1[C@@H](n2cc(-c3cc(F)c(F)c(F)c3)nn2)[C@@H](O)[C@@H](CO)O[C@@H]1Cc1cc(C(C)(C)N)no1 [Ex 1.217]
